Test results from PubChem BioAssay (NCI).
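Where inhibition never reached the appropriate level, the endpoint shown equals the highest concentration tested. Otherwise, values were interpolated linearly from a five-concentration, 48-hour dose response in 96-well plates. The concentration for full growth arrest is given as TGI.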 *1 amine or outer side, *2 acyl side, *3 side chain or, on linkers, in order; H or OH if unused. Where a SMILES comes first, the peptide text is derived from it. [ ]: non-standard residue; d: D form. The star is where a group is joined. ξ: configuration not given here. γGlu = O=C(O)[CH](CCC(=O)[*:2])N[*:1]; X22 = O=C(C(CC(O)CO)O[*:1])[*:2]; Ile(3ξ) = CCC(C)[C@H](N)C(=O)O; NMeV = CN[C@H](C(=O)O)C(C)C; NMeA = CN[C@@H](C)C(=O)O; βAla = NCCC(=O)O; NHOH = ON*

Legend:
Assay in all cases: NCI anticancer screen, dose series, 48 h
DLD-1 colon = test system: DLD-1 colon
NCI-H226 lung = test system: NCI-H226 lung
SW-620 colon = test system: SW-620 colon
HCT-15 colon = test system: HCT-15 colon
SK-MEL-2 melanoma = test system: SK-MEL-2 melanoma
OVCAR-4 ovarian = test system: OVCAR-4 ovarian
HOP-62 NSCLC = test system: HOP-62 NSCLC
HL-60(TB) leukemia = test system: HL-60(TB) leukemia
OVCAR-8 ovarian = test system: OVCAR-8 ovarian
CAKI-1 renal = test system: CAKI-1 renal
786-0 renal = test system: 786-0 renal
KM12 colon = test system: KM12 colon
SF-295 CNS = test system: SF-295 CNS
SK-MEL-28 melanoma = test system: SK-MEL-28 melanoma
SN12C renal = test system: SN12C renal
HOP-92 NSCLC = test system: HOP-92 NSCLC
UACC-62 melanoma = test system: UACC-62 melanoma
HCT-116 colon = test system: HCT-116 colon
A498 renal = test system: A498 renal
MCF7 breast = test system: MCF7 breast

Row | SMILES | TGI (DLD-1 colon) | TGI (NCI-H226 lung) | TGI (SW-620 colon) | TGI (HCT-15 colon) | TGI (SK-MEL-2 melanoma) | TGI (OVCAR-4 ovarian) | TGI (HOP-62 NSCLC) | TGI (HL-60(TB) leukemia) | TGI (OVCAR-8 ovarian) | TGI (CAKI-1 renal) | TGI (786-0 renal) | TGI (KM12 colon) | TGI (SF-295 CNS) | TGI (SK-MEL-28 melanoma) | TGI (SN12C renal) | TGI (HOP-92 NSCLC) | TGI (UACC-62 melanoma) | TGI (HCT-116 colon) | TGI (A498 renal) | TGI (MCF7 breast)
1 | COC(=O)C(Cc1nc2ccccc2[nH]c1=O)C(=O)C(=O)Nc1ccc(F)cc1 (stereo unspecified) | > 100 µM | > 100 µM | 42.8 µM | > 100 µM | > 100 µM | > 100 µM | > 100 µM | > 100 µM | 38.6 µM | > 100 µM | 58.8 µM | > 100 µM | > 100 µM | 89.1 µM | > 100 µM | 56.4 µM | 67.8 µM | > 100 µM | – | –
2 | CCSc1nnc(-c2ccccc2)nc1Cc1ccc(OC)cc1 | > 100 µM | > 100 µM | > 100 µM | > 100 µM | > 100 µM | > 100 µM | > 100 µM | > 100 µM | > 100 µM | – | > 100 µM | > 100 µM | > 100 µM | > 100 µM | > 100 µM | > 100 µM | > 100 µM | > 100 µM | > 100 µM | –
3 | CC1OC(OCC2OC(Oc3ccc(C4CC(=O)c5c(O)cc(O)cc5O4)cc3O)C(O)C(O)C2O)C(O)C(O)C1O (stereo unspecified) | – | > 100 µM | > 100 µM | > 100 µM | > 100 µM | > 100 µM | > 100 µM | > 100 µM | > 100 µM | > 100 µM | > 100 µM | > 100 µM | > 100 µM | > 100 µM | > 100 µM | > 100 µM | > 100 µM | > 100 µM | > 100 µM | > 100 µM
4 | Cc1ccc2nc3c(C)cc(=O)cc-3sc2c1 | > 100 µM | > 100 µM | 31.1 µM | 40.9 µM | 52.7 µM | 33.6 µM | 58.8 µM | 25.2 µM | > 100 µM | 37.4 µM | 35.4 µM | 65.4 µM | > 100 µM | 73 µM | 48.8 µM | 76.7 µM | 29 µM | 34.2 µM | – | –
5 | Cc1c/c(=N/NC(=O)c2ccncc2)n2nc(N)sc2n1 | – | > 100 µM | > 100 µM | > 100 µM | > 100 µM | > 100 µM | > 100 µM | > 100 µM | > 100 µM | > 100 µM | > 100 µM | > 100 µM | > 100 µM | > 100 µM | > 100 µM | > 100 µM | > 100 µM | > 100 µM | > 100 µM | > 100 µM
6 | N#Cc1cn(-c2c3ccccc3nc3ccccc23)c(=O)[nH]c1=O | > 100 µM | – | 38 µM | 31.9 µM | 24.9 µM | 20.4 µM | – | 30.6 µM | 27.6 µM | 45.6 µM | 13.5 µM | 79.5 µM | 23.8 µM | 31.4 µM | – | 23.1 µM | 38.8 µM | > 100 µM | – | –
7 | CCOC(=O)CNC(=O)C(CCC(=O)NO)NC(=O)CCC(N)C(=O)O (stereo unspecified) (γGlu-Glu(NHOH)-Gly-OEt; configuration not given here) | – | > 100 µM | > 100 µM | > 100 µM | > 100 µM | > 100 µM | > 100 µM | > 100 µM | > 100 µM | > 100 µM | > 100 µM | > 100 µM | > 100 µM | > 100 µM | > 100 µM | > 100 µM | > 100 µM | > 100 µM | > 100 µM | > 100 µM
8 | CSc1nc(Br)nc2ncn(C3CC(Oc4ccc(C)cc4)C(COc4ccc(C)cc4)O3)c12 (stereo unspecified) | – | > 100 µM | > 100 µM | > 100 µM | > 100 µM | > 100 µM | > 100 µM | > 100 µM | > 100 µM | > 100 µM | > 100 µM | > 100 µM | > 100 µM | > 100 µM | > 100 µM | > 100 µM | > 100 µM | > 100 µM | > 100 µM | > 100 µM
9 | CC(C)NC(=O)OCc1c(COC(=O)NC(C)C)c(-c2cc[n+](COC(=O)C(C)C)cc2)n2c1CCC2 | – | > 100 µM | > 100 µM | > 100 µM | > 100 µM | > 100 µM | > 100 µM | > 77.7 µM | > 100 µM | > 94.8 µM | > 100 µM | > 100 µM | > 100 µM | > 100 µM | > 100 µM | > 100 µM | > 100 µM | > 100 µM | 35.9 µM | > 100 µM
10 | Nc1nc2ncn(CC(O)COC(=O)c3ccccc3)c2c(=O)[nH]1 (stereo unspecified) | > 100 µM | > 100 µM | > 100 µM | > 100 µM | > 100 µM | > 100 µM | > 100 µM | > 100 µM | > 100 µM | > 100 µM | > 100 µM | > 100 µM | > 100 µM | > 100 µM | > 100 µM | > 100 µM | > 100 µM | > 100 µM | > 100 µM | –
11 | N#CCC1(c2ccc(Cl)cc2)NC(=O)c2ccccc21 (stereo unspecified) | – | > 100 µM | > 100 µM | > 100 µM | > 100 µM | > 100 µM | > 100 µM | > 100 µM | > 100 µM | > 100 µM | > 100 µM | > 100 µM | > 100 µM | > 100 µM | > 100 µM | > 100 µM | > 100 µM | > 100 µM | > 100 µM | > 100 µM
12 | CCC(C)[C@@H]1NC(=O)[C@@H]2CCCN2C(=O)C(CC(O)CO)OC(=O)CCNC(=O)[C@H](C)N(C)C(=O)[C@H](C(C)C)N(C)C1=O (stereo partly specified) (cyclo([Ile(3ξ)][NMeV][NMeA][βAla][X22]P)) | > 100 µM | > 100 µM | > 100 µM | > 100 µM | > 100 µM | > 100 µM | > 100 µM | > 100 µM | > 100 µM | > 100 µM | > 100 µM | > 100 µM | > 100 µM | > 100 µM | > 100 µM | > 100 µM | > 100 µM | > 100 µM | > 100 µM | –
